Experimental findings from publication PMC3433420 (PLoS ONE, 2012) are described below.

Residues, ends and D or L forms follow the SMILES beside them.

In general, Kd refers to the concentration at which binding is half-saturated. Low values mean higher affinity, high ones lower affinity.

The target in assay [1] is SH2D2A SH2 domain (Homo sapiens, UniProt Q9NP31). Kind of assay: FP saturation binding assay.
In assay [2] the target is T1, SH2D1A SH2 domain (Homo sapiens, UniProt O60880).
T1 sequence (O60880 6-104 limits assumed): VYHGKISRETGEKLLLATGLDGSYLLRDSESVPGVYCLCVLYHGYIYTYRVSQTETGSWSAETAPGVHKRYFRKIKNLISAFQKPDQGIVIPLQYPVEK
Put plainly: FP saturation binding assay. The settings on record: for KD range of recruitment of SH2D1A (SHD1A [sic]): FP saturation assay.

Assay [3] addresses T2, PIK3R3-NC tandem SH2 domains (Homo sapiens, UniProt Q92569).
T2 construct: the tandem protein was included in our analysis with all internal amino acids linking the domains; 6X His; thioredoxin; made in house; host or cells: E. coli BL21(DE3)pLysS
Put plainly: FP saturation binding assay. The settings on record: Protein PIK3R3-NC; FP saturation binding, high-confidence ErbB interactions; mean over replicate hits. The protocol:
(§1) (See Figure 1A) Rhodamine-labeled peptides were dissolved in assay buffer (20 mM HEPES, 100 mM KCl, 0.1% Tween-20, 5 mM DTT, pH 7.8), diluted to a concentration of 20 nM, and plated into black 384-well plates (Corning, Corning, NY) at 5 µL/well using a Perkin Elmer EP3 pipetting workstation (V&P Scientific, Inc., San Diego, CA). SH2, PTB, and thioredoxin control proteins were plated into the first column of 2 mL 96-well plates (Corning) at a concentration of 20 µM and serially diluted 1∶2 into freezing buffer (300 mM NaCl, 50 mM Na2PO4, pH 8, 20% glycerol v/v) eleven times using a Tecan Freedom EVO 100 workstation (Tecan, Männedorf, Switzerland). For the interaction assay, 5 µL of each of the twelve protein concentrations was added to the peptide-containing 384-well plates via the EP3 resulting in a protein dilution range of 0.002–10 µM and a final volume of 10 µL; peptide concentration was fixed at 10 nM. Peptide/protein samples were incubated for 20 minutes at room temperature in the dark and fluorescence polarization (FP) was measured in an Analyst GT multimode reader (Molecular Devices, Sunnyvale, CA) with excitation and emission wavelengths of 530 nm and 555 nm, respectively. Experimental values were output as millipolarization (mP) units and imported into MATLAB (The MathWorks, Inc., Natick, MA) in which equation (1) was used to determine dissociation constants (KDs) for each protein/peptide pairing by least squares nonlinear regression. [drawing 1] (1)
(§2) FP was described by the following equation: P=Iparallel-IperpendicularIparallel+Iperpendicular, where “P” denotes polarization, and “I” denotes the fluorescent intensity relative to the plane of incident light. Experimental values were output as millipolarization (mP) units and imported into MATLAB where the following equation was used to determine dissociation constants (KDs) for each protein/peptide pairing by least squares nonlinear regression:
(§3) Pobs=Pmax∙ProteinKD+Protein [picture] (1)
Peptides were initially tested for systematic plate effects across protein dilutions and nonspecific binding to thioredoxin by linear regression analysis and any effects were regressed out. The median baseline control polarization value for each plate was then subtracted from each data point to make each binding curve intersect at zero. Plates with excessive variation in baseline control polarizations on both a global and run-specific manner (Dixon’s Q test, p < 0.05) were excluded from further analysis. Outliers in each binding curve were identified and removed using an iterative procedure as follows. The residuals for each fit were used to calculate a global standard deviation of the residuals (GSDR) for each concentration of SH2 domain over all interactions, and individual data points with residuals < or > two GSDR from the global mean residual were flagged as outliers. The outlier with the largest residual from each interaction was removed and nonlinear regression was again performed. This procedure was repeated if additional outliers were identified for an interaction, discarding the interaction if the number of outliers exceeded three. […] In order to further control our false positive rate against hidden confounding variables producing binding artifacts, we sought to determine whether there was a significant relationship between the strength of an interaction and its technical replication rate at our stringent significance and filtering thresholds. We performed logistic regression on the proportion of successful replicates for each interaction query against KD for all interactions (Figure S15A). […] This is related to the observation that the majority of interactions detected by FP are tight (Figure S15B). With this logit model, we assigned a probability to each peptide-protein interaction in our data by using a binomial proportions test to compare the observed versus the expected replication rate at the particular KD of that interaction (Table S4). […]

Assay [4] addresses T3, PLCG1-NC tandem SH2 domains (Homo sapiens, UniProt P19174).
T3 construct: the tandem protein was included in our analysis with all internal amino acids linking the domains; 6X His; thioredoxin; made in house; host or cells: E. coli BL21(DE3)pLysS
T3 sequence (P19174 550-756 limits assumed): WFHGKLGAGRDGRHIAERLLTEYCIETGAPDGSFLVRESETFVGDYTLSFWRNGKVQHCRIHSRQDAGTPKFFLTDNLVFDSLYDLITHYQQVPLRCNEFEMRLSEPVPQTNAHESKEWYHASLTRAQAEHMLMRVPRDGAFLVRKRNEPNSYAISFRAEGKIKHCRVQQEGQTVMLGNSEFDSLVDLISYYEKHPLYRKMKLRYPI
Kind of assay: FP saturation binding assay. The settings on record: Protein PLCG1-NC; FP saturation binding, high-confidence ErbB interactions; mean over replicate hits. The method, then:
as §1, with “Peptide/protein samples were incubated for 20 minutes at room temperature in the dark and fluorescence polarization (FP) was measured in an Analyst GT multimode reader (Molecular Devices, Sunnyvale, CA) with excitation and emission wavelengths of 530 nm and 555 nm, respectively.” left out
as §2, §3
Peptides were initially tested for systematic plate effects across protein dilutions and nonspecific binding to thioredoxin by linear regression analysis and any effects were regressed out. The median baseline control polarization value for each plate was then subtracted from each data point to make each binding curve intersect at zero. Plates with excessive variation in baseline control polarizations on both a global and run-specific manner (Dixon’s Q test, p < 0.05) were excluded from further analysis. Outliers in each binding curve were identified and removed using an iterative procedure as follows. The residuals for each fit were used to calculate a global standard deviation of the residuals (GSDR) for each concentration of SH2 domain over all interactions, and individual data points with residuals < or > two GSDR from the global mean residual were flagged as outliers. The outlier with the largest residual from each interaction was removed and nonlinear regression was again performed. This procedure was repeated if additional outliers were identified for an interaction, discarding the interaction if the number of outliers exceeded three. […] In order to further control our false positive rate against hidden confounding variables producing binding artifacts, we sought to determine whether there was a significant relationship between the strength of an interaction and its technical replication rate at our stringent significance and filtering thresholds. We performed logistic regression on the proportion of successful replicates for each interaction query against KD for all interactions (Figure S15A). […] “High-confidence” FP interactions are defined as those having 1 - P(Observed Replication Rate | Expectation) > 0.5 and that have replicated at least twice across independent FP runs. […] The compiled FP data were organized into heatmaps generated by MATLAB and relative binding strength (µM). Peptides without at least one positive hit were classified as “no interaction” if there was no homologous sequence (i.e. identical at the +1 to +4 positions relative to the phosphotyrosine) that produced a positive interaction within the ErbB receptor family.

The target in assay [5] is PIK3R2-NC tandem SH2 domains (Homo sapiens, UniProt O00459). Put plainly: FP saturation binding assay.
Assay [6] concerns the target T4, RASA1-N SH2 domain (Homo sapiens, UniProt P20936).
T4 sequence (P20936 181-272 limits assumed): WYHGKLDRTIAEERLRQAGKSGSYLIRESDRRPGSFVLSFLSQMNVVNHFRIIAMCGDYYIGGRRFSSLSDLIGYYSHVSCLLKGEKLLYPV
Put plainly: FP saturation binding assay.

In assay [7] the target is T5, PIK3R3-C SH2 domain (Homo sapiens, UniProt Q92569).
T5 construct: thioredoxin; made in house; host or cells: E. coli BL21(DE3)pLysS
Kind of assay: biochemical. The format is binding. The settings on record: Protein PIK3R3-C; FP saturation binding, high-confidence ErbB interactions; mean over replicate hits.

Assay [8] has as its target T6, SH2D1B SH2 domain (Homo sapiens, UniProt O14796).
T6 sequence (O14796 5-101 limits assumed): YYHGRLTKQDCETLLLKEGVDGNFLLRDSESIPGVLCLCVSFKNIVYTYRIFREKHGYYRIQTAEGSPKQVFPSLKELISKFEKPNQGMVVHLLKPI
Put plainly: FP saturation binding assay. The settings on record: FP saturation assay.

Sequence of SH2D2A SH2 domain (Q9NP31 95-186 limits assumed): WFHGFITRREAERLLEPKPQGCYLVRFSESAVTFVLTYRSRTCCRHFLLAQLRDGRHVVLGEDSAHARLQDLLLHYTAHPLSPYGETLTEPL
Sequence of PIK3R2-NC tandem SH2 domains (O00459 330-716 limits assumed): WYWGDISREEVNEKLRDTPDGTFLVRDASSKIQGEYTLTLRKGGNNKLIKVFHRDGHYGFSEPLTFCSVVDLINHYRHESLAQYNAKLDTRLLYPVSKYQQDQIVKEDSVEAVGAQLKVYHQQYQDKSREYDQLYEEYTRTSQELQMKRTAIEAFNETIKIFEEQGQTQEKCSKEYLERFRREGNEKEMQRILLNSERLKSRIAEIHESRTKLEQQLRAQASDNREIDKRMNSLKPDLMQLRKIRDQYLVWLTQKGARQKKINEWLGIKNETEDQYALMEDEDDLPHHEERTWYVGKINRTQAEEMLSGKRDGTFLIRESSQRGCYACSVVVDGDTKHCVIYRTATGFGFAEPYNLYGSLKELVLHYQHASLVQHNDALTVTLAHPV

In assay [1], `CC[C@H](C)[C@H](NC(=O)[C@H](CCCNC(=N)N)NC(=O)[C@H](Cc1c[nH]cn1)NC(=O)[C@@H](N)CC(C)C)C(=O)N[C@@H](Cc1ccc(OP(=O)(O)O)cc1)C(=O)N[C@H](C(=O)N[C@@H](Cc1c[nH]cn1)C(=O)N[C@@H](CCC(N)=O)C(=O)N[C@@H](CO)C(=O)N[C@@H](CC(=O)O)C(=O)N[C@H](C(=O)N[C@@H](Cc1c[nH]c2ccccc12)C(=O)N[C@@H](CC(=O)O)C(=O)O)C(C)C)[C@@H](C)O` [ErbB1 891 13-mer] (HELM PEPTIDE1{L.H.R.I.[O=C([C@H](Cc1ccc(OP(=O)(O)O)cc1)N[*:1])[*:2]].T.H.Q.S.D.V.W.D}$$$$V2.0) gave a Kd of 13.4 µM.
With `CC[C@H](C)[C@H](NC(=O)CNC(=O)[C@H](CC(=O)O)NC(=O)[C@H](Cc1ccc(OP(=O)(O)O)cc1)NC(=O)[C@@H]1CCCN1C(=O)[C@H](CCCCN)NC(=O)[C@H](CO)NC(=O)CN)C(=O)N1CCC[C@H]1C(=O)N[C@@H](C)C(=O)N[C@@H](CO)C(=O)N[C@@H](CCC(=O)O)C(=O)N[C@@H](CC(=O)O)C(=O)O` [ErbB1 915 13-mer] (HELM PEPTIDE1{G.S.K.P.[O=C([C@H](Cc1ccc(OP(=O)(O)O)cc1)N[*:1])[*:2]].D.G.I.P.A.S.E.D}$$$$V2.0), the Kd in assay [1] is 4.77 µM; in assay [2], 14.5 µM.
With `CC[C@H](C)[C@H](NC(=O)[C@H](Cc1ccc(OP(=O)(O)O)cc1)NC(=O)[C@H](CCC(=O)O)NC(=O)[C@@H]1CCCN1C(=O)[C@@H](NC(=O)[C@@H]1CCCN1)C(C)C)C(=O)N[C@@H](CC(N)=O)C(=O)N[C@@H](CCC(N)=O)C(=O)N[C@@H](CO)C(=O)N[C@H](C(=O)N1CCC[C@H]1C(=O)N[C@@H](CCCCN)C(=O)N[C@@H](CC(=O)O)C(=O)O)C(C)C` [ErbB1 1092 13-mer], the Kd amounted to 8.64 µM in assay [3], 10.9 µM in assay [1], 7.58 µM in assay [4] and 11.2 µM in assay [5].
For the molecule `NCCCC[C@H](NC(=O)[C@@H]1CCCN1C(=O)[C@H](Cc1ccccc1)NC(=O)[C@H](Cc1ccccc1)NC(=O)[C@H](CC(=O)O)NC(=O)[C@H](CCC(N)=O)NC(=O)[C@H](CCC(N)=O)NC(=O)[C@H](Cc1ccc(OP(=O)(O)O)cc1)NC(=O)[C@H](CC(=O)O)NC(=O)[C@@H]1CCCN1C(=O)[C@H](CC(N)=O)NC(=O)[C@@H](N)CC(=O)O)C(=O)N[C@@H](CC(=O)O)C(=O)O` [ErbB1 1172 13-mer] (HELM PEPTIDE1{D.N.P.D.[O=C([C@H](Cc1ccc(OP(=O)(O)O)cc1)N[*:1])[*:2]].Q.Q.D.F.F.P.K.D}$$$$V2.0), the equilibrium dissociation constant (Kd) was 7.79 µM in assay [4], 4.17 µM in assay [6] and 12.6 µM in assay [7].
Consider `CSCC[C@H](NC(=O)[C@H](Cc1ccc(OP(=O)(O)O)cc1)NC(=O)[C@H](CCC(=O)O)NC(=O)[C@H](Cc1ccc(O)cc1)NC(=O)[C@H](CCC(=O)O)NC(=O)[C@@H](N)CCC(=O)O)C(=O)N[C@@H](CC(N)=O)C(=O)N[C@@H](CCCNC(=N)N)C(=O)N[C@@H](CCCNC(=N)N)C(=O)N[C@@H](CCCNC(=N)N)C(=O)N[C@@H](CCCNC(=N)N)C(=O)N[C@@H](Cc1c[nH]cn1)C(=O)N[C@@H](CC(=O)O)C(=O)O` [ErbB3 1199 13-mer] (HELM PEPTIDE1{E.E.Y.E.[O=C([C@H](Cc1ccc(OP(=O)(O)O)cc1)N[*:1])[*:2]].M.N.R.R.R.R.H.D}$$$$V2.0), for which the dissociation constant Kd in assay [1] turned out to be 13.9 µM.
In the case of FGTVpYKGIWVPEd [ErbB4 pY733], the “KD range of recruitment of SH2D1B” value in assay [8] is on record as “in the nM KD range”. For the same molecule, the “KD range of recruitment of SH2D1A (SHD1A [sic])” value in assay [2] is “in the nM KD range”.
LDEApYVMAGVGS [ErbB2 pY772]: the “KD range of recruitment of SH2D1B” value in assay [8] is “in the nM KD range”. Also, in assay [2], the “KD range of recruitment of SH2D1A (SHD1A [sic])” value was “in the nM KD range”.
